Assay [1] addresses T1, Menin/Histone-lysine N-methyltransferase MLL (Homo sapiens, UniProt O00255). As to the kind of experiment: Inhibition of Menin-MLL protein-protein interaction (unknown origin) preincubated for 1 hr in presence of FLSN-MLL4-43 peptide followed by compound addition and measured after 1 hr by fluorescence polarization assay. (In general: In fluorescence polarisation assays a small probe gives low polarisation when free and higher when bound to something large.)

The target of assay [2] is T1, Menin/Histone-lysine N-methyltransferase MLL. As to the kind of experiment: Inhibition of Menin-MLL protein-protein interaction (unknown origin) preincubated for 1 hr in presence of FLSN-MBM1 peptide followed by compound addition and measured after 1 hr by fluorescence polarization assay.

Positions of bridges follow the written chain, without caps; N, C: chain ends. Non-standard residues stand in square brackets, D forms with d. Residues, ends and D or L forms follow the SMILES beside them. Phe(3-F) = N[C@@H](Cc1cccc(F)c1)C(=O)O; AllylGly = C=CC[C@H](N)C(=O)O; Ac4c = NC1(C(=O)O)CCC1

T1 sequence (O00255 whole entry): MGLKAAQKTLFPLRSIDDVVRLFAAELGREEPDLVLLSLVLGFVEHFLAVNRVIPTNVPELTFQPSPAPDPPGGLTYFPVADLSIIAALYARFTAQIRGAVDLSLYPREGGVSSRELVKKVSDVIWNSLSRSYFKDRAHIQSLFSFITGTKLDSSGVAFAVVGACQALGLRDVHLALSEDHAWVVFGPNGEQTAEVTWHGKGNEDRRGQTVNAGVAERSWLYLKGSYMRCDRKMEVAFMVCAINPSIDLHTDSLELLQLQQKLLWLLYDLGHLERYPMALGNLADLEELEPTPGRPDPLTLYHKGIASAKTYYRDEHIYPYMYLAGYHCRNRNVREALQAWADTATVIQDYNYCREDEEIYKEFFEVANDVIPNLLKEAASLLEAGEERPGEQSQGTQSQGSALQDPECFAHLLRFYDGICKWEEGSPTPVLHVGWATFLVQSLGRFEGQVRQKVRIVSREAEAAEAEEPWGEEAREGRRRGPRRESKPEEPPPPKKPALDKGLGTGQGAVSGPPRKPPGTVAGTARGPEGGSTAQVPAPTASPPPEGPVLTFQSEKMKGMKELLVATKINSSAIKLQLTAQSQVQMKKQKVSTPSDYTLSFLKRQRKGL
T1 sequence (Q03164 1-2718 partner limits assumed): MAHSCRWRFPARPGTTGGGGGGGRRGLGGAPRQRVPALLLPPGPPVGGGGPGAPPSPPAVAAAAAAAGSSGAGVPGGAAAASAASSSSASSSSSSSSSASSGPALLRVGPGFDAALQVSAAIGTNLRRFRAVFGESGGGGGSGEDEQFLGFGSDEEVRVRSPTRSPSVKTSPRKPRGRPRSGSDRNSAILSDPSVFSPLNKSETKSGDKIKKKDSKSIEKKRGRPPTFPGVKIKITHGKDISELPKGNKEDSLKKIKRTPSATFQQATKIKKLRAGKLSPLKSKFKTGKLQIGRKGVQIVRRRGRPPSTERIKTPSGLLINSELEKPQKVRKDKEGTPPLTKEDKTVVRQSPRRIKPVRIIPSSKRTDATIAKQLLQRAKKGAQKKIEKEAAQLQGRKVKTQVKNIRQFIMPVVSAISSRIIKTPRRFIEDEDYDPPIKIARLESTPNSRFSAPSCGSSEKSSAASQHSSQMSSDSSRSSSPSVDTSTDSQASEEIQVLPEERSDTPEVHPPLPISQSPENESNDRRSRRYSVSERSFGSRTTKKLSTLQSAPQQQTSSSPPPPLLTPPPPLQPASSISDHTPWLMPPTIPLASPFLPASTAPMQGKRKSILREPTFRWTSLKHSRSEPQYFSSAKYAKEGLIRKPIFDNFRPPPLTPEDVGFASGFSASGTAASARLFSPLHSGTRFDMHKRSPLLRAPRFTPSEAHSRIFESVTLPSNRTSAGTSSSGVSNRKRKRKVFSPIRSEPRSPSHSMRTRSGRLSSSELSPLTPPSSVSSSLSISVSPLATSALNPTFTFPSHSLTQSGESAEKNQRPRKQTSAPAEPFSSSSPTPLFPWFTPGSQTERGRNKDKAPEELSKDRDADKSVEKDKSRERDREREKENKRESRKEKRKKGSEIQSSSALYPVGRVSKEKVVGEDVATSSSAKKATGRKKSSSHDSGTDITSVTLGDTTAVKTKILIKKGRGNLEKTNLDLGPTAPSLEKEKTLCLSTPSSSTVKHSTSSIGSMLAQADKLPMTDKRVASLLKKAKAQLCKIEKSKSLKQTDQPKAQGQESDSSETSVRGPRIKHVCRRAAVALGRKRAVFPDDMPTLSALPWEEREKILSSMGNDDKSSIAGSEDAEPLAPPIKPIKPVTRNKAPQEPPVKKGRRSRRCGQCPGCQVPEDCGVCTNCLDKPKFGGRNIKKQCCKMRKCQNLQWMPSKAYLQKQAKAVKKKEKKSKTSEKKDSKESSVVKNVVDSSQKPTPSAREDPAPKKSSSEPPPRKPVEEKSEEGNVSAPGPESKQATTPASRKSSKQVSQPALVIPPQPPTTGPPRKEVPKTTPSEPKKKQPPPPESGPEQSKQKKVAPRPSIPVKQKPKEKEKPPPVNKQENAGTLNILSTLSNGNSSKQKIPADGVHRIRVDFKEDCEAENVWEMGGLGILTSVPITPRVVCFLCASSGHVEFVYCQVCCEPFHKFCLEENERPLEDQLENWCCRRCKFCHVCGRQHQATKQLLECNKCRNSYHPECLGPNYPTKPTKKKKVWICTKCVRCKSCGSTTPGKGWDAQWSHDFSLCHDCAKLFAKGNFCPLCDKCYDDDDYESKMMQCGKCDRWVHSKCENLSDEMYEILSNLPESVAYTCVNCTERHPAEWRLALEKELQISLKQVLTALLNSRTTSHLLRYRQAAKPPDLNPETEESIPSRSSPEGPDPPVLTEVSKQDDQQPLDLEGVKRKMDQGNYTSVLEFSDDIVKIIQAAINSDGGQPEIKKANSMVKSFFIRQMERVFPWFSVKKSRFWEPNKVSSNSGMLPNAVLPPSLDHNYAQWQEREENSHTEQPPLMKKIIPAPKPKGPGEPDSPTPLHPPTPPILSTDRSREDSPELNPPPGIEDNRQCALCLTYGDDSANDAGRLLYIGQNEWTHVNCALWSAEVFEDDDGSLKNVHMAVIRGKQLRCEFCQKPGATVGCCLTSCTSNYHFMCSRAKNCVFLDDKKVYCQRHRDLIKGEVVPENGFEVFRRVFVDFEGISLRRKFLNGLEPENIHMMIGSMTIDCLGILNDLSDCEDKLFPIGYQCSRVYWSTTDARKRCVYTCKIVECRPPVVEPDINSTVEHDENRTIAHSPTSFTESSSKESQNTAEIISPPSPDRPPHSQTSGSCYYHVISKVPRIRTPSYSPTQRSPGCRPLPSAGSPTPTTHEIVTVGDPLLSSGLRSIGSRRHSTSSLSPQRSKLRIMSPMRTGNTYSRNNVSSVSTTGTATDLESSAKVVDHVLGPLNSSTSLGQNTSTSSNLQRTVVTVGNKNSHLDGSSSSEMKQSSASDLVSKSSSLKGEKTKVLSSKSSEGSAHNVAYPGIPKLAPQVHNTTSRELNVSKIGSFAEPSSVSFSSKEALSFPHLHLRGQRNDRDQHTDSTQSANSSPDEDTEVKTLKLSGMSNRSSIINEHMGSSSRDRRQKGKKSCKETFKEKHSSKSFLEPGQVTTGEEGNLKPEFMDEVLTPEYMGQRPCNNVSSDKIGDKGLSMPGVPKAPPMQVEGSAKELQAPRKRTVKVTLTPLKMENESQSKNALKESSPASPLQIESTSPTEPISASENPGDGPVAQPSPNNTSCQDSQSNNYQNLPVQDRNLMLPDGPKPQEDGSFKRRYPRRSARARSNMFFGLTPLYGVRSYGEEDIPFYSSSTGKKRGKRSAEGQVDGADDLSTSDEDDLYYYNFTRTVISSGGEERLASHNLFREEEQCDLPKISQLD
T1 sequence (Q03164 2719-3969 partner limits assumed): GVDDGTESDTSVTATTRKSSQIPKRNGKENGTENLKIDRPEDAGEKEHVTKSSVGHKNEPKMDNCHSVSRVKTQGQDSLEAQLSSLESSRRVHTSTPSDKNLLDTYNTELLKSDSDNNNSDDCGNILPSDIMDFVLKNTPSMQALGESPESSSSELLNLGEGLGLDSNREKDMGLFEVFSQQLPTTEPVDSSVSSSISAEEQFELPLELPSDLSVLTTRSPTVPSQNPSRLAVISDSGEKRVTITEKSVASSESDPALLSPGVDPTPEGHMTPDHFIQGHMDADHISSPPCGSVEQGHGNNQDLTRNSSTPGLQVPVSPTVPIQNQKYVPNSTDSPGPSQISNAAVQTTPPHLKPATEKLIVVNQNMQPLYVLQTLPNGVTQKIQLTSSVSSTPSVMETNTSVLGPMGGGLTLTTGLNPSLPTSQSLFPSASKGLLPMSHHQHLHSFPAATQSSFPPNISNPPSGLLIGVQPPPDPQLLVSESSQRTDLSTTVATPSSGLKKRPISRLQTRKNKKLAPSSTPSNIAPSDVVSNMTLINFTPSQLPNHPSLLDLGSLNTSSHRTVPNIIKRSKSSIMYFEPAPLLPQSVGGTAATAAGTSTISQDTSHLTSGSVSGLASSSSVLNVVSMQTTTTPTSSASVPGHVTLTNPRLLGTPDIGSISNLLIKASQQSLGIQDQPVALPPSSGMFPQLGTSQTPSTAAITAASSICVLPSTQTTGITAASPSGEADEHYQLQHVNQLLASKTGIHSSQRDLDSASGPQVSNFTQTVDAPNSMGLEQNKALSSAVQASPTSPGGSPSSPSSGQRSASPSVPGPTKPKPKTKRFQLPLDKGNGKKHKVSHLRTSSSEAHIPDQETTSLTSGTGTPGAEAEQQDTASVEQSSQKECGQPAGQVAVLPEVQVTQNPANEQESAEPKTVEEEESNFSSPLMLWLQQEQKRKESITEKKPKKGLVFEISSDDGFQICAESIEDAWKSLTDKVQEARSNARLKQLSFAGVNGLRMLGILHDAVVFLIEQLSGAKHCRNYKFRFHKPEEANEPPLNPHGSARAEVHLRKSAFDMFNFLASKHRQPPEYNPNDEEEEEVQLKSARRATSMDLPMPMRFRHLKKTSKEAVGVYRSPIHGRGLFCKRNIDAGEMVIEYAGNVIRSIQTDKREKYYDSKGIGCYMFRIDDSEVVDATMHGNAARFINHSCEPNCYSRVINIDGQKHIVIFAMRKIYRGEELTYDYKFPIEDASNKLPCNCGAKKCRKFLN

As usually defined, the IC50 is the midpoint of a concentration-inhibition curve. In the case of `CC(=O)N[C@@H](CO)C(=O)N[C@@H](C)C(=O)N[C@@H](CCCNC(=N)N)C(=O)N[C@@H](Cc1c[nH]c2ccccc12)C(=O)N[C@@H](CCCNC(=N)N)C(=O)N[C@@H](Cc1ccccc1)C(=O)N1CCC[C@H]1C(=O)N[C@@H](C)C(=O)N[C@@H](CCCNC(=N)N)C(=O)N1CCC[C@H]1C(=O)NCC(=O)N[C@H](C(N)=O)[C@@H](C)O`, the results for the IC50 in assay [1] and in assay [2] were 3590 nM and 84 nM, respectively.
For `CC(=O)N[C@@H](CO)C(=O)N[C@@H](C)C(=O)N[C@@H](CCCNC(=N)N)C(=O)N[C@@H](Cc1c[nH]c2ccccc12)C(=O)N[C@H]1C/C=C\C[C@@H](C(=O)N2CCC[C@H]2C(=O)N[C@@H](CCCNC(=N)N)C(N)=O)NC(=O)C2(CCC2)NC(=O)[C@@H]2CCCN2C(=O)[C@H](Cc2cccc(F)c2)NC1=O` (Ac-SARW[AllylGly][Phe(3-F)]P[Ac4c][AllylGly]PR-NH2; staple (Z) 5-9), the IC50 in assay [1] worked out at 657 nM; in assay [2] it was 64 nM.

Values taken from ChEMBL document CHEMBL4765443, “Covalent and noncovalent constraints yield a figure eight-like conformation of a peptide inhibiting the menin-MLL interaction” (Eur J Med Chem, 2020).
